One data set relates to Pseudomonas aeruginosa. As to the kind of experiment: Antibacterial activity against Pseudomonas aeruginosa ATCC 27853 assessed as reduction in bacterial cell growth measured for 18 hrs by Mueller-Hinton broth based two-fold serial dilution method. The data set is classed as functional.
Data set [1] deals with Escherichia coli. The data set is described as follows: Antibacterial activity against Escherichia coli ATCC 25922 assessed as reduction in bacterial cell growth measured for 18 hrs by Mueller-Hinton broth based two-fold serial dilution method. The class given is functional.
Data set [2] can be described thus: Hemolytic activity in mouse erythrocyte incubated for 1 hr by microplate reader analysis. The class given is toxicity, cell-based. The note with it: erythrocytes.
The next data set has as its system Bacillus subtilis. The data set is described as follows: Antibacterial activity against Bacillus subtilis ATCC 23857 assessed as reduction in bacterial cell growth measured for 18 hrs by Mueller-Hinton broth based two-fold serial dilution method. The class given is functional.
Data set [3] concerns Staphylococcus aureus. The data set is described as follows: Antibacterial activity against Staphylococcus aureus ATCC 25923 assessed as reduction in bacterial cell growth measured for 18 hrs by Mueller-Hinton broth based two-fold serial dilution method. The data set is classed as functional.
Data set [4] in a line: Hemolytic activity in mouse Red blood cells incubated for 1 hr by microplate reader assay. The data set is classed as toxicity, cell-based, Erythrocyte. To be noted: red blood cells.
The next data set has as its system Klebsiella pneumoniae. As to the kind of experiment: Antibacterial activity against Klebsiella pneumoniae ATCC 700603 assessed as reduction in bacterial cell growth measured for 18 hrs by Mueller-Hinton broth based two-fold serial dilution method. The data set is classed as functional.
The test system of data set [5] is Escherichia coli. As to the kind of experiment: Antibacterial activity against Escherichia coli ATCC 25922 assessed as reduction in bacterial growth measured after 24 hrs by Mueller-Hinton broth based two-fold serial dilution method. The data set is classed as functional.
Data set [6] relates to Staphylococcus aureus. As to the kind of experiment: Antibacterial activity against Staphylococcus aureus ATCC 25923 assessed as reduction in bacterial growth measured after 24 hrs by Mueller-Hinton broth based two-fold serial dilution method. The class given is functional.

In brackets after ≈: the same amount, converted by molar mass. Square brackets hold non-standard residues; d marks the D form. Peptide text beside a SMILES is read from it. * marks the point of attachment. Pentadecanoyl = CCCCCCCCCCCCCCC(=O)*; NMeR = CN[C@@H](CCCNC(=N)N)C(=O)O; Tridecanoyl = CCCCCCCCCCCCC(=O)*; NMeK = CN[C@@H](CCCCN)C(=O)O; Nonanoyl = CCCCCCCCC(=O)*

As usually defined, the MIC is the lowest concentration that inhibits growth of the organism. Usually HC50 stands for the concentration that lyses half of the red blood cells. With `CCCCCCCCCCCCC(=O)NCC(=O)N[C@@H](CC(C)C)C(=O)N[C@@H](CC(C)C)C(=O)N[C@@H](CCCCN)C(=O)N(C)[C@@H](CCCNC(=N)N)C(=O)N[C@H](C(=O)N(C)[C@@H](CCCCN)C(=O)N[C@H](C(=O)N[C@@H](CC(C)C)C(=O)N[C@@H](CC(C)C)C(N)=O)[C@@H](C)O)[C@@H](C)CC` (Tridecanoyl-GLLK[NMeR]I[NMeK]TLL-NH2), the MIC turned out to be 8 µM (≈ 11 µg/mL) in the data set with Pseudomonas aeruginosa; 8 µM (≈ 11 µg/mL) in the data set on Escherichia coli [1]; 4 µM (≈ 5.51 µg/mL) in the data set on Bacillus subtilis; 8 µM (≈ 11 µg/mL) in the data set on Staphylococcus aureus [3]; 32 µM (≈ 44.1 µg/mL) with Klebsiella pneumoniae. In addition, the HC50 at 1 h in data set [2] and in data set [4] was 64 µM in each case.
With `CC[C@H](C)[C@H](NC(=O)[C@H](CCCNC(=N)N)NC(=O)[C@H](CCCCN)NC(=O)[C@H](CC(C)C)NC(=O)[C@H](CC(C)C)NC(=O)CN)C(=O)N[C@@H](CCCCN)C(=O)N[C@H](C(=O)N[C@@H](CC(C)C)C(=O)N[C@@H](CC(C)C)C(=O)O)[C@@H](C)O` (H-GLLKRIKTLL-OH), the results for the MIC in the data set on Escherichia coli [5] and in the data set on Staphylococcus aureus [6] were 41.4 µM (≈ 47.8 µg/mL) and more than 41.4 µM, respectively.
`CCCCCCCCCCCCC(=O)NCC(=O)N[C@@H](CC(C)C)C(=O)N[C@@H](CC(C)C)C(=O)N(C)[C@@H](CCCCN)C(=O)N[C@@H](CCCNC(=N)N)C(=O)N[C@H](C(=O)N(C)[C@@H](CCCCN)C(=O)N[C@H](C(=O)N[C@@H](CC(C)C)C(=O)N[C@@H](CC(C)C)C(N)=O)[C@@H](C)O)[C@@H](C)CC` (Tridecanoyl-GLL[NMeK]RI[NMeK]TLL-NH2): the MIC with Pseudomonas aeruginosa came out at 8 µM (≈ 11 µg/mL); in the data set on Escherichia coli [1], 16 µM (≈ 22 µg/mL); in the data set on Bacillus subtilis it was 4 µM (≈ 5.51 µg/mL); with Staphylococcus aureus [3], 8 µM (≈ 11 µg/mL); in the data set with Klebsiella pneumoniae, 64 µM (≈ 88.2 µg/mL). The HC50 at 1 h in data set [2] and in data set [4] was 64 µM throughout.
Take `CC[C@H](C)[C@H](NC(=O)[C@H](CCCNC(=N)N)NC(=O)[C@@H](N)CCCCN)C(=O)N[C@@H](CCCCN)C(=O)N[C@H](C(=O)N[C@@H](CC(C)C)C(=O)N[C@@H](CC(C)C)C(N)=O)[C@@H](C)O` (H-KRIKTLL-NH2): the MIC with Escherichia coli [5] is 70.2 µM (≈ 61.1 µg/mL); with Staphylococcus aureus [6] it was more than 70.2 µM.
As to `CCCCCCCCCCCCCCC(=O)NCC(=O)N[C@@H](CC(C)C)C(=O)N[C@@H](CC(C)C)C(=O)N[C@@H](CCCCN)C(=O)N(C)[C@@H](CCCNC(=N)N)C(=O)N[C@H](C(=O)N(C)[C@@H](CCCCN)C(=O)N[C@H](C(=O)N[C@@H](CC(C)C)C(=O)N[C@@H](CC(C)C)C(N)=O)[C@@H](C)O)[C@@H](C)CC` (Pentadecanoyl-GLLK[NMeR]I[NMeK]TLL-NH2), the MIC in the data set on Pseudomonas aeruginosa was 16 µM (≈ 22.5 µg/mL); in the data set with Escherichia coli [1] it was 16 µM (≈ 22.5 µg/mL); in the data set on Bacillus subtilis, 8 µM (≈ 11.2 µg/mL); in the data set with Staphylococcus aureus [3], 16 µM (≈ 22.5 µg/mL); in the data set with Klebsiella pneumoniae, 32 µM (≈ 45 µg/mL). Also, the HC50 at 1 h in data set [2] and in data set [4] was 64 µM each time.
For `CC[C@H](C)[C@H](NC(=O)[C@H](CCCNC(=N)N)NC(=O)[C@H](CCCCN)NC(=O)[C@H](CC(C)C)NC(=O)[C@@H](N)CC(C)C)C(=O)N[C@@H](CCCCN)C(=O)N[C@H](C(=O)N[C@@H](CC(C)C)C(=O)N[C@@H](CC(C)C)C(N)=O)[C@@H](C)O` (H-LLKRIKTLL-NH2), the MIC in the data set on Escherichia coli [5] was 54.7 µM (≈ 60 µg/mL); in the data set on Staphylococcus aureus [6] it was more than 54.7 µM.
On to `CC[C@H](C)[C@H](NC(=O)[C@H](CCCNC(=N)N)NC(=O)[C@H](CCCCN)NC(=O)[C@H](CC(C)C)NC(=O)[C@H](CC(C)C)NC(=O)CN)C(=O)N[C@@H](CCCCN)C(=O)N[C@H](C(N)=O)[C@@H](C)O` (H-GLLKRIKT-NH2), for which the MIC with Escherichia coli [5] was 24.8 µM (≈ 23 µg/mL); with Staphylococcus aureus [6], more than 24.8 µM.
For `CCCCCCCCC(=O)NCC(=O)N[C@@H](CC(C)C)C(=O)N[C@@H](CC(C)C)C(=O)N[C@@H](CCCCN)C(=O)N(C)[C@@H](CCCNC(=N)N)C(=O)N[C@H](C(=O)N(C)[C@@H](CCCCN)C(=O)N[C@H](C(=O)N[C@@H](CC(C)C)C(=O)N[C@@H](CC(C)C)C(N)=O)[C@@H](C)O)[C@@H](C)CC` (Nonanoyl-GLLK[NMeR]I[NMeK]TLL-NH2), the MIC in the data set with Pseudomonas aeruginosa was 32 µM (≈ 42.3 µg/mL); in the data set with Escherichia coli [1] it was 128 µM (≈ 169 µg/mL); in the data set with Bacillus subtilis it was 8 µM (≈ 10.6 µg/mL); in the data set with Staphylococcus aureus [3], 128 µM (≈ 169 µg/mL); in the data set on Klebsiella pneumoniae it was more than 128 µM. Also, the HC50 at 1 h in [2] and in data set [4] was more than 256 µM in each case.
For the molecule `CC[C@H](C)[C@H](NC(=O)[C@H](CCCNC(=N)N)NC(=O)[C@H](CCCCN)NC(=O)[C@@H](N)CC(C)C)C(=O)N[C@@H](CCCCN)C(=O)N[C@H](C(=O)N[C@@H](CC(C)C)C(=O)N[C@@H](CC(C)C)C(N)=O)[C@@H](C)O` (H-LKRIKTLL-NH2), the MIC with Escherichia coli [5] was 31.6 µM (≈ 31 µg/mL); with Staphylococcus aureus [6], more than 31.6 µM.
